Paper PMC11567856, “A novel peptide‐based tau aggregation inhibitor as a potential therapeutic for Alzheimer's disease and other tauopathies” (Alzheimer's & Dementia, 2024)
Where a SMILES comes first, the peptide text is derived from it. [ ]: non-standard residue; d: D form.

What was measured:
[1] = target: T1, Tau^Δ1‐250 (Homo sapiens, UniProt P10636); experiment: ThT fluorescence, heparin-induced aggregation of Tau^Δ1‐250; format: biochemical
T1 construct: Tau^Δ1‐250 (an aggregate prone truncated version of full‐length Tau); made in house; host or cells: E. coli BL21(DE3)
Description: (§1) Fluorescence was measured (λex = 442 nm, λem = 483 nm), and data were normalized. […] The addition of inhibitor to the growth phase was controlled by adding an equivalent volume of buffer alone.
(§2) Experiments were conducted in triplicate and error bars were reported as standard deviation. Statistical analysis: p > 0.05, *p ≤ 0.05, **p ≤ 0.01, ***p ≤ 0.001.

[2] = ThT fluorescence, self-assembly of peptide inhibitors without Tau; format: physicochemical; details: ThT end-point 216 h (9 days); 20 µM peptide, PBS, 1 mM DTT, 20 µM ThT, 10 µM heparin, pH 7.4; n=3
Description: as §1, §2

[3] = target: T1, Tau^Δ1‐250; experiment: Seeded Tau^Δ1‐250 aggregation with preformed filaments, no heparin; format: biochemical; details: Tau monomers incubated with preformed Tau^Δ1‐250 filaments, no heparin (Figure S10)
[4] = system: Elav/hTau^2N4R flies; experiment: Drosophila survival assay, hTau^2N4R pan-neuronal; format: in vivo, Drosophila melanogaster; parameters: unit of the concentration uncertain
Description: Drosophila survival assays: Elav‐GAL4 (BDSC_458) female flies were crossed with male UAS‐Tau^2N4R flies or with gender‐matched Oregon‐R (WT) flies. Survival of 10 cohorts of 10 male flies expressing hTau^2N4R pan‐neurally and reared on a diet containing 0.08 or 0.8 µM RI‐AG03 was assessed as previously described.[49] Statistics and reproducibility: Data were collected in ≥triplicate and expressed as mean ± standard error of the mean. […] This test analyzed outcomes related to the treatment effects of peptide inhibitors against Tau aggregation at multiple time points, controlling for individual variability and ensuring that changes observed were significant. For the Drosophila survival data, a Kaplan–Meier survival curve was plotted, and a Log‐rank (Mantel–Cox) test was performed on the data using GraphPad Prism software[49] This test analyzed survival outcomes by comparing survival distribution between groups, without assuming a specific distribution for survival times. AFM data were analyzed by unpaired t‐test with Welch's correction as we made the assumption, from previous similar studies, that the two populations (Tau enriched preps isolated from flies fed or not fed RI‐AG03) had the […].

[5] = system: hTau^2N4R aggregates in Elav/hTau^2N4R flies; experiment: AFM of insoluble Tau fraction from fly heads; format: in vivo, Drosophila melanogaster; details: 6 weeks of treatment, 0.08 µM inhibitor (Figure 6 legend), insoluble Tau prep, n = 3, p = 0.0045
Description: […] Decapitated fly heads were homogenized in TBS/sucrose buffer (50 mM Tris‐HCl pH 7.4, 175 mM NaCl, 1 M sucrose, 5 mM EDTA and protease inhibitor cocktail). Samples were spun for 2 min at 1000 g, retaining the supernatant, which was then spun at 100,000 g for 30 min at 4°C. The supernatant included the aqueous soluble fraction and monomeric Tau “NS1.” The pellet was re‐suspended at ∼20°C–25°C in 5% SDS/TBS buffer (50 mM Tris‐HCl pH 7.4, 175 mM NaCl, 5% SDS, and protease inhibitor cocktail) and spun at 100,000 g for 30 at 25°C. The pellet “NP1” was washed three times with water to remove the remaining SDS from the fractionation and re‐suspended in 1X PBS. A solid glass bead was added to each sample and incubated overnight in a rotor at 4°C. AFM: NP1 (5 µL) was diluted in 1X PBS and 25 µL of the sample was placed in a freshly cleaved 10 mm mica disc. These were incubated at ∼20°C–25°C for 5 min. Samples were rinsed four times with ultrapure water and dried with compressed air. Samples were imaged in the air with a digital multimode Nanoscope IV AFM operating in tapping mode with an aluminum‐coated non‐contact/Tapping mode probe (resonance frequency 320 kHz and force constant 42 N/m). The images are representative of the sample and were taken at random points on the sample with a scan rate of 1–2 Hz. […] Quantification of aggregates was carried out using ImageJ software.

T1 sequence (P10636 568-758, stated change not applied): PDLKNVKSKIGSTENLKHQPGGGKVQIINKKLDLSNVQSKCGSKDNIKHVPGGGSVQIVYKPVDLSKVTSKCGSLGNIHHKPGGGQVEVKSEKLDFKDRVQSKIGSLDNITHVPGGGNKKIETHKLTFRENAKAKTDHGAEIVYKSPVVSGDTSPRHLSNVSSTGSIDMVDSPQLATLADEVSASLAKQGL

CC[C@@H](C)[C@@H](NC(=O)[C@@H](CCCCNC(C)=O)NC(=O)[C@@H](Cc1ccc(O)cc1)NC(=O)[C@@H](CCCCN)NC(=O)[C@H]1CCCN1C(=O)CNC(=O)[C@@H](CCCNC(=N)N)NC(=O)[C@@H](CCCNC(=N)N)NC(=O)[C@@H](CCCNC(=N)N)NC(=O)[C@@H](CCCNC(=N)N)NC(=O)[C@@H](CCCNC(=N)N)NC(=O)[C@@H](CCCNC(=N)N)NC(=O)[C@@H](CCCNC(=N)N)NC(=O)[C@@H](CCCNC(=N)N)NC(C)=O)C(=O)N[C@H](CCC(N)=O)C(=O)N[C@@H](C(=O)NCC(=O)N[C@H](CCCNC(=N)N)C(N)=O)C(C)C [RI‐AG03] (Ac-[dR][dR][dR][dR][dR][dR][dR][dR]G[dP][dK][dY][dK](Ac)[dI][dQ][dV]G[dR]-NH2)
IC50 [1]: 7.83 µM
inhibition of Tau^Δ1‐250 aggregation ([1]; ThT end-point after 24 h, 37°C, 20 µM Tau^Δ1‐250, 20 µM peptide (equimolar), 5 µM heparin, 30 mM Tris, 1 mM DTT, 15 µM ThT, pH 7.4, triplicate): ~94%
effect when added during the growth phase of Tau^Δ1‐250 aggregation ([1]; ThT kinetics 12 h, 20 µM Tau^Δ1‐250, 20 µM RI‐AG03 added 1 h after aggregation was initiated): halted any further aggregation
self-association into β‐sheets over 216 h [2]: does not self‐associate into β‐sheets
effect on seeded Tau^Δ1‐250 aggregation in the absence of heparin [3]: demonstrated efficacy at inhibiting seeded Tau^Δ1‐250 aggregation
median survival of hTau^2N4R flies, high dose ([4]; high‐dose (0.8 µM) in diet, pan‐neuronal hTau^2N4R male flies, untreated 26 days, n = 100, p < 0.0005): 35 days
improvement of median survival of hTau^2N4R flies, high dose ([4]; high‐dose (0.8 µM) in diet, versus untreated 26 days, n = 100): 35%
median survival of hTau^2N4R flies, low dose ([4]; low‐dose (0.08 µM) in diet, pan‐neuronal hTau^2N4R male flies, untreated 26 days, n = 100, p < 0.0005): 33 days
improvement of median survival of hTau^2N4R flies, low dose ([4]; low‐dose (0.08 µM) in diet, versus untreated 26 days, n = 100): 27%
reduction in oligomeric and fibrillar Tau species (AFM) [5]: 73%
